Read-outs that look alike come from different tables or passages of the source.
Assays:
PI3Kα = molecular target: T1, PI3Kα (Homo sapiens, UniProt P42336); assay: Biochemical assay of PI3K potency and selectivity using 20 μM ATP, Alpha; settings: for Alpha/Delta Ratio: ratio of IC50 values, > = hypothetical ratio with 100 μM substituted for the missing IC50; for IC50: read-out: Alpha IC50
T1 construct: His tag (pFastbac HTb vector) (N); FLAG; made in house; host or cells: Sf21 insect cells (baculovirus)
Description: (§1) Recombinant PI3K heterodimeric complexes consisting of a p110 catalytic subunit and a p85 regulatory subunit were overexpressed using the BAC-TO-BAC® HT baculovirus expression system (GIBCO/BRL), and then purified for use in biochemical assays. The four Class I PI 3-kinases were cloned into baculovirus vectors as follows: […]

PI3Kδ = PI3Kδ (Homo sapiens, UniProt O00329, S253N); assay: Biochemical assay of PI3K potency and selectivity using 20 μM ATP, Delta; design: His tag (pFastbac HTb vector) (N); FLAG; made in house; host or cells: Sf21 insect cells (baculovirus); settings: 20 μM ATP; read-out: Delta IC50
Description: as §1

PI3Kβ = molecular target: T2, PI3Kβ (Homo sapiens, UniProt P42338); assay: Biochemical assay of PI3K potency and selectivity using 20 μM ATP, Beta; settings: 20 μM ATP; for Beta/Delta Ratio: ratio of IC50 values, > = hypothetical ratio with 100 μM substituted for the missing IC50; for IC50: read-out: Beta IC50; for remaining activity at 100 µM: read-out: Beta: percent activity remaining at 100 μM, 100 μM compound did not inhibit by at least 50%
T2 construct: His tag (pFastbac HTa vector) (N); FLAG (N); made in house; host or cells: Sf21 insect cells (baculovirus)
Method: Recombinant PI3K heterodimeric complexes consisting of a p110 catalytic subunit and a p85 regulatory subunit were overexpressed using the BAC-TO-BAC® HT baculovirus expression system (GIBCO/BRL), and then purified for use in biochemical assays. The four Class I PI 3-kinases were cloned into baculovirus vectors as follows:
The 3× substrate for the HTS contained 0.6 mM Na2ATP, 0.10 mCi/mL γ-[^32P]ATP (NEN, Pittsburgh, Pa.), 6 μM PIP2/PS liposomes (Avanti Polar Lipids, Inc., […].), in 20 mM HEPES, pH 7.4.

[1] = tested on: Murine splenocytes (Balb/c); assay: B cell proliferation in response to cell surface IgM stimulation; assay type: cell-based; settings: Mus musculus, Splenocyte; stimulated B cell proliferation; read-out: Mouse BCR Stim (EC50)
Method: In the above experiment, the B cells were stimulated using PANSORBIN®. The effect of D-000 on B cell proliferation response when they were stimulated through their cell surface IgM using anti-IgM antibody also was measured. Murine splenocytes (Balb/c) were plated into 96-well microtiter plates at 2×10^5 cells per well in 10% FBS/RPMI. Appropriate dilutions of test inhibitor in complete medium were added to the cells and the plates were incubated for 30-60 minutes prior to the addition of stimulus. Following the preincubation with test inhibitor an F(ab′)2 preparation of goat antibody specific for the μ-chain of mouse IgM was added to the wells at a final concentration of 25 μg/mL. The plates were incubated at 37° C. for 3 days and 1 μCi of [^3H]-thymidine was added to each well for the final four hours of culture. The plates were harvested onto fiber filters washed and the incorporation of radiolabel was determined using a beta counter (Matrix 96, Packard Instrument Co., Downers Grove, Ill.) and expressed as counts per minute (CPM).
Using the methods described in Examples 3-5, above, compounds of the invention were tested for inhibitory activity and potency in assays of stimulated B and T cell proliferation, neutrophil (PMN) migration, and neutrophil (PMN) elastase release. In Table 4, the values shown are effective concentrations of the compound (EC50; μM). Where no value is given, no assay was performed.

[2] = read-out: percent activity remaining at 100 μM, 20 μM ATP, 100 μM compound did not inhibit by at least 50%

T2 sequence (P42338 whole entry): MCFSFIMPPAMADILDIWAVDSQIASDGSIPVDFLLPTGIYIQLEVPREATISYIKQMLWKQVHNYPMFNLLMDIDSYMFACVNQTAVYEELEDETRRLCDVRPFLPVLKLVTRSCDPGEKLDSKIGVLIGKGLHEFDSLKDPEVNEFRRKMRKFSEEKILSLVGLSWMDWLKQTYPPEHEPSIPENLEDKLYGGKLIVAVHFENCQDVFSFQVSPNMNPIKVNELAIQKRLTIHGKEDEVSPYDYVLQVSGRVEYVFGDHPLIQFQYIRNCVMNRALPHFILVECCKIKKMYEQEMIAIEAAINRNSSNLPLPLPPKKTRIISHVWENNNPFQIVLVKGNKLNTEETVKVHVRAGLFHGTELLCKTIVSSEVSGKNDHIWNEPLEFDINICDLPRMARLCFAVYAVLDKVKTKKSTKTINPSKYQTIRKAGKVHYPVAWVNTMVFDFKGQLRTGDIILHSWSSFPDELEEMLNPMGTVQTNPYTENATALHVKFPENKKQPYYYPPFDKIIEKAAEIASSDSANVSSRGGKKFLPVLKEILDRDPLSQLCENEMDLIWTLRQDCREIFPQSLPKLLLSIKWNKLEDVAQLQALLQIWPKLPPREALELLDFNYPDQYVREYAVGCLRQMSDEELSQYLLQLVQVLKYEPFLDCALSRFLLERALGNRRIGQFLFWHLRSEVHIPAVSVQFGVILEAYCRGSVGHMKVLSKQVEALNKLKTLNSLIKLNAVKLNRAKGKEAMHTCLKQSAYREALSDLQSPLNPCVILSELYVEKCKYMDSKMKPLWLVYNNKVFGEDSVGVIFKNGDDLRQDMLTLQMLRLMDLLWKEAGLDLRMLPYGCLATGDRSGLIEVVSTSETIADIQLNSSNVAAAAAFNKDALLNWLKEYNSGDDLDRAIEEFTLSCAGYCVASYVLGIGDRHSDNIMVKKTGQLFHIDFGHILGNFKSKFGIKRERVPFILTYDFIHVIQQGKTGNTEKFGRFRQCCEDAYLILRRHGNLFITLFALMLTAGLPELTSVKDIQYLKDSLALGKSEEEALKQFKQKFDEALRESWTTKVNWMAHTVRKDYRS
T2 sequence (P27986 whole entry partner): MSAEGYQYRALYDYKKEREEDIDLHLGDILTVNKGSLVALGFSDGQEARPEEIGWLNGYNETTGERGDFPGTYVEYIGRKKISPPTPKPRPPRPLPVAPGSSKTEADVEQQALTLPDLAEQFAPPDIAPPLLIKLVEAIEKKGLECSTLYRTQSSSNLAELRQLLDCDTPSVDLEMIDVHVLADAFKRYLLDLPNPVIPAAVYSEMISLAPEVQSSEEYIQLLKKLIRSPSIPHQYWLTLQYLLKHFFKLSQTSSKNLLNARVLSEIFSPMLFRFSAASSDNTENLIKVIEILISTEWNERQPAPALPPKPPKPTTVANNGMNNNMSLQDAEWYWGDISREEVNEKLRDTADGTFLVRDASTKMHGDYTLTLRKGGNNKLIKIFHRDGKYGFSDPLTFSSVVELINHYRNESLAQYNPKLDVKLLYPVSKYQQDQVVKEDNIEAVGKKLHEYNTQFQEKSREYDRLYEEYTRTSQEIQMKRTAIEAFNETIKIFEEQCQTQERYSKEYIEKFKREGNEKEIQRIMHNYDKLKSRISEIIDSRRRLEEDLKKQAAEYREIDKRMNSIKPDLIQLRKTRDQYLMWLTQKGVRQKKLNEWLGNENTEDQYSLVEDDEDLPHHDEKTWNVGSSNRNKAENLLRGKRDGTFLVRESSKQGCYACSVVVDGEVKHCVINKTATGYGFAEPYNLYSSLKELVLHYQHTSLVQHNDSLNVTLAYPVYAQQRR
Sequence of PI3Kδ (O00329 whole entry S253N): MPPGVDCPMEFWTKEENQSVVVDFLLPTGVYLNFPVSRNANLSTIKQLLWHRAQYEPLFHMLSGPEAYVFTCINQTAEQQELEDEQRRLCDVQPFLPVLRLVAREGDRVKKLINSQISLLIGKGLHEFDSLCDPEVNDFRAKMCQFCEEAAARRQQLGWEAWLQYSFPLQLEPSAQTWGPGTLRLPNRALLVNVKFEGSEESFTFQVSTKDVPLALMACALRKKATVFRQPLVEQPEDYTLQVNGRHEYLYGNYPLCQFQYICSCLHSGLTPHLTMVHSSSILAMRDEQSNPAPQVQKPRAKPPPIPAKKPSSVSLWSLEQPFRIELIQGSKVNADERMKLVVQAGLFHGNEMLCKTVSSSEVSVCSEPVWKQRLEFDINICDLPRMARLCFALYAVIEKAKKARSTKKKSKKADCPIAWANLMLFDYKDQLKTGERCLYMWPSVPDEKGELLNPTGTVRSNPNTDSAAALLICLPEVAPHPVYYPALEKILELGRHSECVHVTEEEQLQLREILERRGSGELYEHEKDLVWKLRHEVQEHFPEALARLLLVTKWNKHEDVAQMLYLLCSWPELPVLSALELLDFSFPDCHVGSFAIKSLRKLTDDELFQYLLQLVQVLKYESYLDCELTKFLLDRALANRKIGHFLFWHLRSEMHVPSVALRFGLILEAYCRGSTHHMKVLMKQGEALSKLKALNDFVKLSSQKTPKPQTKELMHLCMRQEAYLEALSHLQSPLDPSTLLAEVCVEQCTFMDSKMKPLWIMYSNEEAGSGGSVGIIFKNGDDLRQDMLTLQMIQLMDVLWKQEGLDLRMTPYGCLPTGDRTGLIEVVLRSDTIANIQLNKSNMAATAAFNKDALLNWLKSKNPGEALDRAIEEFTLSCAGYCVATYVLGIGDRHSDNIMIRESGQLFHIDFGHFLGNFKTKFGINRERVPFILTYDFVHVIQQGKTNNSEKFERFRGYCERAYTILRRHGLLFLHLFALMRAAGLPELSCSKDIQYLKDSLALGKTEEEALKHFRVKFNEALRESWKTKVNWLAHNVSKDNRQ
Sequence of PI3Kδ (P27986 whole entry partner): as the sequence (P27986 whole entry partner) above
T1 sequence (P42336 whole entry): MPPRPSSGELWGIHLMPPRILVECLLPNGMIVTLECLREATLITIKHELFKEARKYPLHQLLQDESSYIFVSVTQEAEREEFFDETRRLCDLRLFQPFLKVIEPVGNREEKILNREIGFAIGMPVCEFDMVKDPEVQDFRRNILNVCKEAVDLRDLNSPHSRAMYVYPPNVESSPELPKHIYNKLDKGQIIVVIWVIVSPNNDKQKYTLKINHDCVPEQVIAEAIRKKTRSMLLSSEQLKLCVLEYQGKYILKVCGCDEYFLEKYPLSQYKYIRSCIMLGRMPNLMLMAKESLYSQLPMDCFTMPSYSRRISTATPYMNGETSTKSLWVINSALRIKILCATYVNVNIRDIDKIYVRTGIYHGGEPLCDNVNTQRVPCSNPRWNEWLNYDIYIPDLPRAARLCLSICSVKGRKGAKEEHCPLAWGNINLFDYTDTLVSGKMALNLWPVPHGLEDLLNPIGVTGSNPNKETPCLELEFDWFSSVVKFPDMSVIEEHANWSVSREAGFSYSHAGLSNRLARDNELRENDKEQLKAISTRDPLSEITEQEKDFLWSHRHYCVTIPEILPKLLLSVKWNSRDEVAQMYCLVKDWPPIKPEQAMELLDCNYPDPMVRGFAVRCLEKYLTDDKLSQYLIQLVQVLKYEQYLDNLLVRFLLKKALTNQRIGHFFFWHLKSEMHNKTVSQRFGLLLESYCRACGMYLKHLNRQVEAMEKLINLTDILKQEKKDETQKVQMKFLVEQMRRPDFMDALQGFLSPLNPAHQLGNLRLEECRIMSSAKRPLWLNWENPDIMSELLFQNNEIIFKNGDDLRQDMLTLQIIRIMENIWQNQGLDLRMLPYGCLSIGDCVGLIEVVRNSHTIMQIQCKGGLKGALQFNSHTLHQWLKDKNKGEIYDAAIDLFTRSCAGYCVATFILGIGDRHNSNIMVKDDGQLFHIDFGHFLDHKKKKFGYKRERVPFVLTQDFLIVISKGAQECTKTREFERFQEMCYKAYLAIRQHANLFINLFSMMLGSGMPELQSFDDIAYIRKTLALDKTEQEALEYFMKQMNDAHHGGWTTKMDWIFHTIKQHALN
T1 sequence (P27986 whole entry partner): as the sequence (P27986 whole entry partner) above

SMILES | melting point | Alpha/Delta Ratio (PI3Kα; 20 μM ATP) | remaining activity at 100 µM (PI3Kα; [2]) | IC50 (PI3Kδ) | Beta/Delta Ratio (PI3Kβ) | IC50 (PI3Kβ) | remaining activity at 100 µM (PI3Kβ) | EC50 [1] | IC50 (PI3Kα; 20 μM ATP) | Alpha IC50 column: percent activity remaining at 100 μM (PI3Kα; 20 μM ATP, 100 μM compound did not inhibit by at least 50%, 100 µM) | remaining activity at 100 µM (PI3Kα; read-out: percent activity remaining at 100 μM)
Cc1ccccc1-n1c(Cn2cnc3c(N)ncnc32)nc2cccc(Cl)c2c1=O | 262 to 266.5 °C |  |  |  |  |  |  |  |  |  | 
COc1cc2nc(Cn3cnc4c(N)ncnc43)n(-c3ccccc3Cl)c(=O)c2cc1OC [Compound D-001, 2-(6-Aminopurin-9-ylmethyl)-3-(2-chlorophenyl)-6,7-dimethoxy-3H-quinazolin-4-one] | 281.5 to 282.7 °C (dec.) | >1.5 | 83% | 68 µM | 0.66 | 45 µM |  |  |  |  | 
Nc1ncnc2c1ncn2Cc1nc2ccc(Br)cc2c(=O)n1-c1ccccc1Cl [Compound D-002, 2-(6-Aminopurin-o-ylmethyl)-6-bromo-3-(2-chlorophenyl)-3H-quinazolin-4-one] | 284.2 to 284.7 °C (dec.) | >2.3 | 88% | 44 µM | >2.3 |  | 78% |  |  |  | 
Nc1ncnc2c1ncn2Cc1nc2ccc(Cl)cc2c(=O)n1-c1ccccc1Cl [Compound D-004, 2-(6-Aminopurin-9-ylmethyl)-6-chloro-3-(2-chlorophenyl)-3H-quinazolin-4-one] | 294.5 to 294.8 °C (dec.) | >2 | 93% | 64 µM | >1.6 |  | 89% |  |  |  | 
Nc1ncnc2c1ncn2Cc1nc2c(Cl)cccc2c(=O)n1-c1ccccc1Cl [Compound D-008, 2-(6-Aminopurin-9-ylmethyl)-8-chloro-3-(2-chlorophenyl)-3H-quinazolin-4-one] | 273.3 to 273.5 °C | >85 | 82% | 1.2 µM | 57 | 68 µM |  | 1 µM |  |  | 
COc1cc2nc(CSc3ncnc4[nH]cnc34)n(-c3ccccc3Cl)c(=O)c2cc1OC [Compound D-016, 3-(2-Chlorophenyl)-6,7-dimethoxy-2-(9H-purin-6-ylsulfanylmethyl)-3H-quinazolin-4-one] | 160 to 180 °C (dec.) | >2.5 | 91% | 40 µM | >3 |  | 81% |  |  |  | 
O=c1c2cc(Br)ccc2nc(CSc2ncnc3[nH]cnc23)n1-c1ccccc1Cl [Compound D-017, 6-Bromo-3-(2-chlorophenyl)-2-(9H-purin-6-ylsulfanylmethyl)-3H-quinazolin-4-one] | 212 to 242 °C (dec.) | >8 | 89% | 12 µM | >8 |  | 108% |  |  |  | 
O=c1c2cc(Cl)ccc2nc(CSc2ncnc3[nH]cnc23)n1-c1ccccc1Cl [Compound D-020, 6-Chloro-3-(2-chlorophenyl)-2-(9H-purin-6-ylsulfanylmethyl)-3H-quinazolin-4-one] | 237.1 to 238.2 °C (dec.) | >53 | 69% | 1.9 µM | >53 |  | 69% |  |  |  | 
O=c1c2ccc([N+](=O)[O-])cc2nc(CSc2ncnc3[nH]cnc23)n1-c1ccccc1Cl [Compound D-023, 3-(2-Chlorophenyl)-7-nitro-2-(9H-purin-6-ylsulfanylmethyl)-3H-quinazolin-4-one] | 218 to 218.3 °C (dec.) | >4 | 83% | 26 µM | >3.9 |  | 91% |  |  |  | 
COc1ccccc1-n1c(Cn2cnc3c(N)ncnc32)nc2cccc(Cl)c2c1=O [Compound D-033, 2-(6-Aminopurin-9-ylmethyl)-5-chloro-3-(2-methoxyphenyl)-3H-quinazolin-4-one] | 257 to 257.1 °C |  |  |  |  |  |  |  |  |  | 
COc1cccc(-n2c(CSc3ncnc4[nH]cnc34)nc3ccccc3c2=O)c1 [Compound D-040, 3-(3-methoxyphenyl)-2-(9H-purin-6-ylsulfanylmethyl)-3H-quinazolin-4-one] |  | >61 | 77% | 1.7 µM | >61 |  | 64% |  |  |  | 
O=c1c2ccccc2nc(CSc2ncnc3[nH]cnc23)n1-c1cccc(Cl)c1 [Compound D-041, 3-(3-chlorophenyl)-2-(9H-purin-6-ylsulfanylmethyl)-3H-quinazolin-4-one] |  | >25 | 67% | 4 µM | >25 |  | 65% |  |  |  | 
O=c1c2ccccc2nc(CSc2ncnc3[nH]cnc23)n1-c1ccncc1 [Compound D-042, 2-(9H-purin-6-ylsulfanylmethyl)-3-pyridin-4-yl-3H-quinazolin-4-one] |  | >32 | 70% | 3 µM | 8 | 25 µM |  |  |  |  | 
CC(=O)O.CN1CCN(n2c(CSc3ncnc4[nH]cnc34)nc3ccccc3c2=O)CC1 [Compound D-044, 3-(4-methylpiperazin-1-yl)-2-(9H-purin-6-ylsulfanylmethyl)-3H-quinazolin-4-one, acetate salt] |  | 25 |  | 4.2 µM | 15 | 61 µM |  |  | 105 µM |  | 
COc1ccccc1-n1c(CSc2ncnc3[nH]cnc23)nc2ccccc2c1=O [Compound D-046, 3-(2-methoxyphenyl)-2-(9H-purin-6-ylsulfanylmethyl)-3H-quinazolin-4-one] |  | >11 |  |  | 11 |  |  |  |  | 64% | 
CCCCn1c(Cn2cnc3c(N)ncnc32)nc2ccccc2c1=O [Compound D-050, 2-(6-aminopurin-9-ylmethyl)-3-butyl-3H-quinazolin-4-one] |  | >63 | 99% | 1.6 µM | 26 | 41 µM |  |  |  |  | 
CC(=O)O.Nc1ncnc2c1ncn2Cc1nc2ccccc2c(=O)n1N1CCOCC1 [Compound D-051, 2-(6-aminopurin-9-ylmethyl)-3-morpholin-4-yl-3H-quinazolin-4-one, acetate salt] |  | >31 |  | 3.3 µM | >31 |  | 57% |  |  |  | 89%
O=c1c2ccccc2nc(CSc2ncnc3[nH]cnc23)n1-c1ccc(Cl)cc1 [Compound D-052, 3-(4-chlorophenyl)-2-(9H-purin-6-ylsulfanylmethyl)-3H-quinazolin-4-one] |  | 0.09 |  | 8 µM | >13 |  | 69% |  | 0.7 µM |  | 
